IC50 data for 28 molecules are collected here from patent US9334264B2, “NAMPT inhibitors” (AbbVie Inc., priority 2012, dated 2016).

The target in experiment [1] is NAMPT (human, recombinant, C-terminally His-tagged) (Homo sapiens, UniProt P43490). Put plainly: Time-Resolved Fluorescence Resonance Energy Transfer (TR-FRET) Binding Assay of NAMPT. The conditions noted are these: absence of substrates; 6.8 nM NAMPT, 200 nM probe, equilibrated 3 hours. The procedure, abridged:
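Displacement of 200 nM Oregon Green-labelled nicotinamide-competitive probe from 6.8 nM His-tagged NAMPT, detected with 1 nM Tb-anti-His; HEPES pH 7.5, 2% DMSO, 3 h room temperature. Em520/Em495 ratios normalized and fit four-parameter logistic for IC50.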
In general terms: In TR-FRET formats the signal depends on donor and acceptor labels being close together.

For another experiment, the target named is NAMPT (Homo sapiens, UniProt P43490). The experiment in a line: Time-Resolved Fluorescence Resonance Energy Transfer (TR-FRET) Binding Assay of NAMPT with PRPP. The conditions noted are these: 200 μM PRPP and 2.5 mM ATP; 2 nM NAMPT, 2 nM probe, equilibrated 16 hours. A digest of the protocol: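 Binding was measured by TR-FRET with 2 nM NAMPT, 2 nM probe and 1 nM Tb-anti-His antibody in the presence of 200 μM PRPP and 2.5 mM ATP, with 2% DMSO. Equilibration lasted 16 h before reading, allowing possible enzymatic modification of compounds.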

Some results are limits rather than exact numbers.

Chain of NAMPT (human, recombinant, C-terminally His-tagged) (P43490 whole entry): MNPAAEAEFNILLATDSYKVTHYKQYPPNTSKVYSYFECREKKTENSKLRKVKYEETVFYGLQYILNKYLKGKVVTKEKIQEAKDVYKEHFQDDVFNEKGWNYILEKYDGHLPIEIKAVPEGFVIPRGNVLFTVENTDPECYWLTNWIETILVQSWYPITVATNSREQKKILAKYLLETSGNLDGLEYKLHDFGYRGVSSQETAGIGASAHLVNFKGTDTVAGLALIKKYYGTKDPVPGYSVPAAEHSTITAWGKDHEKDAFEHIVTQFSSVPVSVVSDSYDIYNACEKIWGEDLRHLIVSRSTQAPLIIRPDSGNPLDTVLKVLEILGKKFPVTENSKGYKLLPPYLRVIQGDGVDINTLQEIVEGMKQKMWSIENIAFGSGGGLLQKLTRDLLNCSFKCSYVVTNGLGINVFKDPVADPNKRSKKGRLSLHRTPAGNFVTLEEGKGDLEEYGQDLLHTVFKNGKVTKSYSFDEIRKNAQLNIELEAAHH
Chain of NAMPT (P43490 whole entry): as above

Usually IC50 stands for the concentration that gives 50% inhibition. Consider `COCCC(=O)N(CCOC(C)C)c1ncc(C(=O)NCCCn2ccnc2)s1` [Example 179, N-[3-(1H-imidazol-1-yl)propyl]-2-{(3-methoxypropanoyl)[2-(propan-2-yloxy)ethyl]amino}-1,3-thiazole-5-carboxamide], for which the IC50 in experiment [1] was 9800 nM; on NAMPT it was 0.492 nM.
For the molecule `COCCC(=O)N(CCC1OCCO1)c1ncc(C(=O)NCCCn2ccnc2)s1` [Example 180, 2-{[2-(1,3-dioxolan-2-yl)ethyl](3-methoxypropanoyl)amino}-N-[3-(1H-imidazol-1-yl)propyl]-1,3-thiazole-5-carboxamide], the IC50 in experiment [1] is 7710 nM; at NAMPT it was 0.333 nM.
Taken in the same sequence, the figures for `COCCC(=O)N(CC1COCCO1)c1ncc(C(=O)NCCCn2ccnc2)s1` (centres unmarked) [Example 181, 2-[(1,4-dioxan-2-ylmethyl)(3-methoxypropanoyl)amino]-N-[3-(1H-imidazol-1-yl)propyl]-1,3-thiazole-5-carboxamide] were more than 10000 nM and 0.556 nM.
On to `COCCN(C(=O)CCc1ccc(F)cc1)c1ncc(C(=O)NCCCn2ccnc2)s1` [Example 182, 2-{[3-(4-fluorophenyl)propanoyl](2-methoxyethyl)amino}-N-[3-(1H-imidazol-1-yl)propyl]-1,3-thiazole-5-carboxamide], for which the IC50 in experiment [1] was found to be 2590 nM; on NAMPT, 0.264 nM.
For `COCCN(C(=O)CCc1cccnc1)c1ncc(C(=O)NCCCn2ccnc2)s1` [Example 183, N-[3-(1H-imidazol-1-yl)propyl]-2-{(2-methoxyethyl)[3-(pyridin-3-yl)propanoyl]amino}-1,3-thiazole-5-carboxamide], the 50% inhibitory concentration (IC50) in experiment [1] came to 2940 nM; at NAMPT it was 0.281 nM.
Take `COCCN(C(=O)Cc1cccnc1)c1ncc(C(=O)NCCCn2ccnc2)s1` [Example 184, N-[3-(1H-imidazol-1-yl)propyl]-2-[(2-methoxyethyl)(pyridin-3-ylacetyl)amino]-1,3-thiazole-5-carboxamide]: the IC50 in experiment [1] stood at 763 nM; on NAMPT, 0.285 nM.
For `COCCN(C(=O)Cc1ccc2ccccc2c1)c1ncc(C(=O)NCCCn2ccnc2)s1` [Example 185, N-[3-(1H-imidazol-1-yl)propyl]-2-[(2-methoxyethyl)(naphthalen-2-ylacetyl)amino]-1,3-thiazole-5-carboxamide] the same measures were 633 nM and 0.476 nM.
`COCCN(C(=O)Cc1ccc(Oc2ccccc2)cc1)c1ncc(C(=O)NCCCn2ccnc2)s1` [Example 186, N-[3-(1H-imidazol-1-yl)propyl]-2-{(2-methoxyethyl)[(4-phenoxyphenyl)acetyl]amino}-1,3-thiazole-5-carboxamide]: the IC50 in experiment [1] stood at 1100 nM; at NAMPT, 1.23 nM.
Regarding `COCCN(C(=O)Cc1ccc(C#N)cc1)c1ncc(C(=O)NCCCn2ccnc2)s1` [Example 187, 2-{[(4-cyanophenyl)acetyl](2-methoxyethyl)amino}-N-[3-(1H-imidazol-1-yl)propyl]-1,3-thiazole-5-carboxamide], the values for the IC50 (in experiment [1]; on NAMPT) were 3210 nM and 0.216 nM, respectively.
Taken in the same sequence, the figures for `COCCN(C(=O)Cc1ccc(N)cc1)c1ncc(C(=O)NCCCn2ccnc2)s1` [Example 188, 2-{[(4-aminophenyl)acetyl](2-methoxyethyl)amino}-N-[3-(1H-imidazol-1-yl)propyl]-1,3-thiazole-5-carboxamide] were 356 nM and 0.195 nM.
Regarding `C=CCN(CC=C)CCN(C(=O)CCOC)c1ncc(C(=O)NCCCn2ccnc2)s1` [Example 189, 2-[{2-[di(prop-2-en-1-yl)amino]ethyl}(3-methoxypropanoyl)amino]-N-[3-(1H-imidazol-1-yl)propyl]-1,3-thiazole-5-carboxamide], the IC50 in experiment [1] came to 4700 nM; at NAMPT it was 0.586 nM.
As to `CCN(CC)CCCN(C(=O)CCOC)c1ncc(C(=O)NCCCn2ccnc2)s1` [Example 190, 2-{[3-(diethylamino)propyl](3-methoxypropanoyl)amino}-N-[3-(1H-imidazol-1-yl)propyl]-1,3-thiazole-5-carboxamide], the IC50 in experiment [1] stood at 2610 nM; on NAMPT, 0.606 nM.
For the molecule `CCN(CC)CCN(C(=O)CCOC)c1ncc(C(=O)NCCCn2ccnc2)s1` [Example 191, 2-{[2-(diethylamino)ethyl](3-methoxypropanoyl)amino}-N-[3-(1H-imidazol-1-yl)propyl]-1,3-thiazole-5-carboxamide], the IC50 in experiment [1] is more than 10000 nM; at NAMPT, 0.265 nM.
`COCCC(=O)N(CCCN1CCCC1)c1ncc(C(=O)NCCCn2ccnc2)s1` [Example 192, N-[3-(1H-imidazol-1-yl)propyl]-2-{(3-methoxypropanoyl)[3-(pyrrolidin-1-yl)propyl]amino}-1,3-thiazole-5-carboxamide]: the IC50 in experiment [1] was more than 10000 nM; on NAMPT it was 0.262 nM.
Regarding `CCN1CC(CN(C(=O)CCOC)c2ncc(C(=O)NCCCn3ccnc3)s2)CC1=O` (centres unmarked) [Example 193, 2-{[(1-ethyl-5-oxopyrrolidin-3-yl)methyl](3-methoxypropanoyl)amino}-N-[3-(1H-imidazol-1-yl)propyl]-1,3-thiazole-5-carboxamide], the IC50 in experiment [1] was found to be 6060 nM; at NAMPT it was 0.755 nM.
With `COCCC(=O)N(CC1CCC(=O)N1)c1ncc(C(=O)NCCCn2ccnc2)s1` (centres unmarked) [Example 194, N-[3-(1H-imidazol-1-yl)propyl]-2-{(3-methoxypropanoyl)[(5-oxopyrrolidin-2-yl)methyl]amino}-1,3-thiazole-5-carboxamide], the IC50 amounted to 7250 nM in experiment [1] and 1.12 nM at NAMPT.
Regarding `COCCC(=O)N(CCC(=O)N1CCCC1)c1ncc(C(=O)NCCCn2ccnc2)s1` [Example 195, N-[3-(1H-imidazol-1-yl)propyl]-2-{(3-methoxypropanoyl)[3-oxo-3-(pyrrolidin-1-yl)propyl]amino}-1,3-thiazole-5-carboxamide], the IC50 is more than 10000 nM in experiment [1] and 0.338 nM at NAMPT.
For `COCCC(=O)N(CC(=O)N1CCCCC1)c1ncc(C(=O)NCCCn2ccnc2)s1` [Example 196, N-[3-(1H-imidazol-1-yl)propyl]-2-{(3-methoxypropanoyl)[2-oxo-2-(piperidin-1-yl)ethyl]amino}-1,3-thiazole-5-carboxamide] the same measures were 7010 nM and 0.538 nM.
For `COCCC(=O)N(CCCN1CCCC1=O)c1ncc(C(=O)NCCCn2ccnc2)s1` [Example 197, N-[3-(1H-imidazol-1-yl)propyl]-2-{(3-methoxypropanoyl)[3-(2-oxopyrrolidin-1-yl)propyl]amino}-1,3-thiazole-5-carboxamide] the same measures were 9210 nM and 0.251 nM.
On to `COCCC(=O)N(CCN1CCOC1=O)c1ncc(C(=O)NCCCn2ccnc2)s1` [Example 198, N-[3-(1H-imidazol-1-yl)propyl]-2-{(3-methoxypropanoyl)[2-(2-oxo-1,3-oxazolidin-3-yl)ethyl]amino}-1,3-thiazole-5-carboxamide], for which the IC50 in experiment [1] was determined as 2610 nM; on NAMPT, 0.633 nM.
As to `COCCC(=O)N(CCNC(=O)C(C)C)c1ncc(C(=O)NCCCn2ccnc2)s1` [Example 199, N-[3-(1H-imidazol-1-yl)propyl]-2-[(3-methoxypropanoyl){2-[(2-methylpropanoyl)amino]ethyl}amino]-1,3-thiazole-5-carboxamide], the IC50 was more than 10000 nM in experiment [1] and 0.493 nM at NAMPT.
Consider `CNC(=O)CCN(C(=O)CCOC)c1ncc(C(=O)NCCCn2ccnc2)s1` [Example 200, N-[3-(1H-imidazol-1-yl)propyl]-2-{(3-methoxypropanoyl)[3-(methylamino)-3-oxopropyl]amino}-1,3-thiazole-5-carboxamide], for which the values for the IC50 (in experiment [1]; at NAMPT) were more than 10000 nM and 0.747 nM, respectively.
As to `COCCC(=O)N(CCCNC(C)=O)c1ncc(C(=O)NCCCn2ccnc2)s1` [Example 201, 2-{[3-(acetylamino)propyl](3-methoxypropanoyl)amino}-N-[3-(1H-imidazol-1-yl)propyl]-1,3-thiazole-5-carboxamide], the IC50 in experiment [1] was more than 10000 nM; on NAMPT, 0.457 nM.
As to `COCCC(=O)N(CC(=O)N1CCCC1)c1ncc(C(=O)NCCCn2ccnc2)s1` [Example 202, N-[3-(1H-imidazol-1-yl)propyl]-2-{(3-methoxypropanoyl)[2-oxo-2-(pyrrolidin-1-yl)ethyl]amino}-1,3-thiazole-5-carboxamide], the 50% inhibitory concentration (IC50) was found to be 4990 nM in experiment [1] and 0.405 nM at NAMPT.
Take `O=C(NCCCn1ccnc1)c1cnc(N2CCN(CCO)C2=O)s1` [Example 203, 2-[3-(2-hydroxyethyl)-2-oxoimidazolidin-1-yl]-N-[3-(1H-imidazol-1-yl)propyl]-1,3-thiazole-5-carboxamide]: the IC50 is more than 10000 nM in experiment [1] and 13.6 nM on NAMPT.
Taken in the same sequence, the figures for `O=C(NCCCn1ccnc1)c1cnc(N2CCN(c3ccc(F)cc3)C2=O)s1` [Example 204, 2-[3-(4-fluorophenyl)-2-oxoimidazolidin-1-yl]-N-[3-(1H-imidazol-1-yl)propyl]-1,3-thiazole-5-carboxamide] were 3730 nM and 1.46 nM.
As to `O=C(NCCCn1ccnc1)c1cnc(N(Cc2ccc(Cl)cn2)C(=O)C2CCOCC2)s1` [Example 205, 2-{[(5-chloropyridin-2-yl)methyl](tetrahydro-2H-pyran-4-ylcarbonyl)amino}-N-[3-(1H-imidazol-1-yl)propyl]-1,3-thiazole-5-carboxamide], the IC50 came to 739 nM in experiment [1] and 0.177 nM on NAMPT.
With `O=C(NCCCn1ccnc1)c1cnc(N(Cc2ccc(Cl)cn2)C(=O)C2CCOC2)s1` (centres unmarked) [Example 206, 2-{[(5-chloropyridin-2-yl)methyl](tetrahydrofuran-3-ylcarbonyl)amino}-N-[3-(1H-imidazol-1-yl)propyl]-1,3-thiazole-5-carboxamide], the values for the IC50 (in experiment [1]; at NAMPT) were 5630 nM and 0.633 nM, respectively.
